Assay results taken from patent US20130102009A1, “SIRTUIN ACTIVATORS AND ACTIVATION ASSAYS” (priority 2010, published 2013).
Structures can show the parent of a compound that is named as a salt.

How the values were obtained:
SIRT1(183-664) = molecular target: T1, SIRT1(183-664) (Homo sapiens, UniProt Q96EB6); experiment: Fluorescence binding experiment with SIRT1(183-664); conditions: excitation 315 nm, emission 450 nm; read-out: Kx (μM), Fluorescence
T1 construct: the truncated version used for biophysical studies SIRT1(183-664); made in house
T1 sequence (Q96EB6 183-664): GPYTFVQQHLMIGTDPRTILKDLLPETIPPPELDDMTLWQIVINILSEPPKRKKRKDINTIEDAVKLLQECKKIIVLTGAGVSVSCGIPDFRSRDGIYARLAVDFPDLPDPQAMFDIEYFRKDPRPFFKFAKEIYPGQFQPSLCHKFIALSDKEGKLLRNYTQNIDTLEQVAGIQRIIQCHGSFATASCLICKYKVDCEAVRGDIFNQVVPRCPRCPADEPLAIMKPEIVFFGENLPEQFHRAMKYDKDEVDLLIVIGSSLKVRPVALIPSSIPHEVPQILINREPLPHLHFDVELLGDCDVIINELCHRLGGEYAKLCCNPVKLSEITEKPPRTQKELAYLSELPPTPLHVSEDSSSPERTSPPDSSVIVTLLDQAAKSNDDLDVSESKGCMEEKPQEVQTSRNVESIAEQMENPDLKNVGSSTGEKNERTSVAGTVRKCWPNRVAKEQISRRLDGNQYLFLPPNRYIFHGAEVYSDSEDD
Protocol: All peptides were prepared by BioPeptide (San Diego, Calif.) and shown to be at least 95% pure by analytical HPLC analysis. Bovine glutamate dehydrogenase (GDH), α-ketoglutarate, NADH and NAD^+ were from Sigma Chemical Company. Full-length, human SIRT1 and the truncated version used for biophysical studies SIRT1(183-664) were prepared as described previously, and shown to have equivalent kinetic properties (Milne et al. (2007) Nature 450, 712-716). The nicotinamidase PNC1 was prepared as described by Denu and colleagues (Smith et al. (2009) Anal Biochem 394, 101-109).
SIRT1(183-664) was dialyzed against a buffer composed of 137 mM NaCl, 2.7 mM KCl, 1 mM MgCl2, 2 mM TCEP, 5% (v/v) glycerol and 50 mM HEPES-NaOH, pH 7.3. 14 was dissolved in the final dialysis buffer and its pH values were adjusted to match that of the protein solution. The fluorescence emission spectra of 14 in the absence or presence of different concentrations of enzyme was monitored on the SpectraMax M5 with excitation at 315 nm. The fluorescence intensity change at 450 nm was plotted against the concentration of SIRT1(183-664) and fitted using a standard binding equation.

SIRT1 = molecular target: T2, SIRT1 (Homo sapiens, UniProt Q96EB6); experiment: Continuous PNC1-GDH-coupled assay of SIRT1-catalyzed deacetylation of Ac-Arg-His-Lys-Lys^Ac-X with STACs; format: biochemical; conditions: for Relative Velocity, X=Ala-NH2: Ac-Arg-His-Lys-Lys^Ac-Ala-NH2; for Relative Velocity, X=NH2: Ac-Arg-His-Lys-Lys^Ac-NH2
T2 sequence (Q96EB6 1-747): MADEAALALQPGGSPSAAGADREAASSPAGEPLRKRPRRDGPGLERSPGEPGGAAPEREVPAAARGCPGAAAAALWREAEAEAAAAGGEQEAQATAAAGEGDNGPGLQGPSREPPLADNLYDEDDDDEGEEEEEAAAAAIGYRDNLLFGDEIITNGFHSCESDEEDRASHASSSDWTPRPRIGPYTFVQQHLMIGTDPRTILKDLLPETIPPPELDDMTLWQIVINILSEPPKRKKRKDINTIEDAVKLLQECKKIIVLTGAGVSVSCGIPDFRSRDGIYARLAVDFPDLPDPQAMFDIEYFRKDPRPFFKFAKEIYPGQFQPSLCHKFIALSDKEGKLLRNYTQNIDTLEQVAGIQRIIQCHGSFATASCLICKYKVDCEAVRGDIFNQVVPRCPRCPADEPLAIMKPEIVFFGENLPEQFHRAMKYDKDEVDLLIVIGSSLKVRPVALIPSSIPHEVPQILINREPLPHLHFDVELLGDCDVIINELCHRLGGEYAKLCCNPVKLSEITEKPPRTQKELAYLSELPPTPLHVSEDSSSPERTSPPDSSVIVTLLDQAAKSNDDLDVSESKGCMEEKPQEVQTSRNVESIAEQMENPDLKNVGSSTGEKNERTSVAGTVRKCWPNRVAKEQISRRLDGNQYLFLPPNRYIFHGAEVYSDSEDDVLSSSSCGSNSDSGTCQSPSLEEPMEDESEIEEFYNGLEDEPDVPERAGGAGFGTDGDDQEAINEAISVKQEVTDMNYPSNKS
Protocol: Bovine glutamate dehydrogenase (GDH), α-ketoglutarate, NADH and NAD^+ were from Sigma Chemical Company. […] The nicotinamidase PNC1 was prepared as described by Denu and colleagues (Smith et al. (2009) Anal Biochem 394, 101-109). To determine the interaction of STACs with SIRT1 two kinetic methods were employed. […] (2007) Nature 450, 712-716). The other, used with peptides of general structure […], used a continuous, enzyme-coupled method reported previously (Smith et al. (2009) Anal Biochem 394, 101-109), in which the SRT1 product nicotinamide is first converted into nicotinic acid and ammonia by the action of PNC1, and the ammonia then used by GDH to convert α-ketoglutarate into glutamate. This reaction occurs with oxidation of NADH to NAD^+ which is accompanied by a change in absorbance at 340 nm (Δε340=-6,200 M^-1 cm^-1). The kinetic experiments used to characterize activators were run on a Perkin Elmer Lambda 25 spectrophotometer equipped with a water-jacketed, eight-cell changer maintained at 25° C. In a typical kinetic experiment, all components of the reaction solution except SIRT1 were added to a 1 mL cuvette and allowed to reach thermal equilibrium. Final concentrations of the coupling system components were: 1 μM PNC1, 0.23 mM NADH, 3.4 mM α-ketoglutarate, and 20 U/mL bovine GDH. This solution also contained peptide substrate, NAD^.0., and activator, at concentrations indicated in the text. The final DMSO concentration was kept constant at 1%, and the buffer used in these experiments was 50 mM HEPES, 150 mM NaCl, pH 7.5. While the system was reaching thermal equilibrium, the absorbance was monitored to provide an accurate estimate of the background rate, which was subtracted from the reaction rate after the addition of SIRT1. Activator titrations were plotted as relative velocity (i.e., the ratio of vx, velocity in the presence of activator X, to vo, velocity in the absence of activator) vs. [X]o, initial concentration of activator, and fit by nonlinear least-squares to the mechanism-independent expression for enzyme activation of […] the maximum relative velocity (i.e., vx/vo at infinite [X]o) and EC50 is the activator concentration at which vx/vo=(RVmax-1)/2. EC50 is a function of the kinetic mechanisms of both catalysis and activation, and the concentrations of substrates.

[1] = [SRT]o = 5 μM, [peptide]o ≦ Km, [NAD+] = 70 μM
[2] = full titration, 3-5 independent experiments

SMILES | Kd (SIRT1(183-664)) [µM] | Relative Velocity, X=Ala-NH2 (SIRT1; [1]) | Relative Velocity, X=NH2 (SIRT1; [1]) | EC1.5 for activation of deacetylation of Ac-Arg-His-Lys-Lys^Ac-X, X=TrpNH2 (SIRT1; [2]) [µM] | further results
CN(C)Cc1cnc2sc(-c3ccccc3NC(=O)c3cnc4ccccc4n3)nc2c1 [Compound 2, N-(2-(6-((dimethylamino)methyl)thiazolo[5,4-b]pyridin-2-yl)phenyl)quinoxaline-2-carboxamide] | 0.27 | – | – | – | –
CCCCc1nc(NC2CCNCC2)cc(C(=O)Nc2ccccc2-c2nc3cc(COC4CCNCC4)cnc3s2)n1 [Compound 10, 2-butyl-6-(piperidin-4-ylamino)-N-(2-(6-((piperidin-4-yloxy)methyl)thiazolo[5,4-b]pyridin-2-yl)phenyl)pyrimidine-4-carboxamide] | – | 0.3 | 0.6 | 1.9 | Relative Velocity, X=AMC (SIRT1; [SRT]o = 5 μM, [peptide]o ≦ Km, [NAD+] = 70 μM, Ac-Arg-His-Lys-Lys^Ac-AMC, listed as 22): activates; Relative Velocity, X=NH2 (SIRT1; [SRT]o = 5 μM, [peptide]o ≦ Km, [NAD+] = 70 μM, listed as 22): inhibits; Relative Velocity, X=Trp-NH2 (SIRT1; [SRT]o = 5 μM, [peptide]o ≦ Km, [NAD+] = 70 μM, Ac-Arg-His-Lys-Lys^Ac-Trp-NH2, listed as 22): activates; EC1.5 for activation of deacetylation of Ac-Arg-His-Lys-Lys^Ac-X, X=AMC (SIRT1; [2]): 3.1 µM
CN(C)CCCNc1cc(-c2nc3c(NC(=O)c4ccc(CN5CCNCC5)cc4)cccc3[nH]2)ccn1 [Compound 14, N-(2-(2-(3-(dimethylamino)propylamino)pyridin-4-yl)-1H-benzo[d]imidazol-4-yl)-4-(piperazin-1-ylmethyl)benzamide trihydrochloride] | 0.27 | – | – | – | –
COc1cc(C(=O)Nc2ccccc2-c2cn3c(CN4CCNCC4)csc3n2)cc(OC)c1OC [SRT1460] | – | 1.1 | 0.8 | 5.0 | EC1.5 for activation of deacetylation of Ac-Arg-His-Lys-Lys^Ac-X, X=PheNH2 (SIRT1; [2]): 26.0 µM; RVmax for activation of deacetylation of Ac-Arg-His-Lys-Lys^Ac-X, X=TrpNH2 (SIRT1; [2]): 4.1±0.1; EC50 (SIRT1; full titration, 3-5 independent experiments, read-out: EC50 for activation of deacetylation of Ac-Arg-His-Lys-Lys^Ac-X, X=TrpNH2): 27000 ± 8000 nM
